Measurements published in ChEMBL document CHEMBL4725320 (Bioorg Med Chem Lett, 2020).

target: T1, Nuclear receptor subfamily 1 group D member 1 (Homo sapiens, UniProt P20393); assay: Antagonist activity at Rev-Erb alpha (unknown origin) by BMAL1-luciferase reporter assay
T1 sequence (P20393 whole entry): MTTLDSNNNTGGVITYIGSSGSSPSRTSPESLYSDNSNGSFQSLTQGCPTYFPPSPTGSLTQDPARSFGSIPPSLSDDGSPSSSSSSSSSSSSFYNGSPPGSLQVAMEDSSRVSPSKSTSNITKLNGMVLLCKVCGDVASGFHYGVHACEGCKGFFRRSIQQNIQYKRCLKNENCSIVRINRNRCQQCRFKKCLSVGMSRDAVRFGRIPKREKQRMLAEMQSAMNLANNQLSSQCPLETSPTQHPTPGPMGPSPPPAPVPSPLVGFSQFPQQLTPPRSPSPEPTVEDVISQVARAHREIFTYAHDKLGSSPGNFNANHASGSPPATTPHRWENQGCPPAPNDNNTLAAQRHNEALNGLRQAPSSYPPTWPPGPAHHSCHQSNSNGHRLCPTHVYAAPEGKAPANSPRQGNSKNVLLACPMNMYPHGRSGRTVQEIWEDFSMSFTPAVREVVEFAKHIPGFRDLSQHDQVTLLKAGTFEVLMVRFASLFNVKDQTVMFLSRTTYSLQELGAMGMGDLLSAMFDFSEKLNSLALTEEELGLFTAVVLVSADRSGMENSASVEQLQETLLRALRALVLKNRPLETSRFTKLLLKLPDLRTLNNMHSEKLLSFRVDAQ

EC50 [nM] | SMILES
1300 | O=C(Nc1ccccc1)N1CCC(CN(Cc2ccc(Cl)cc2)Cc2ccc([N+](=O)[O-])s2)CC1
470 | CCOC(=O)C1Cc2ccccc2CN1C(=O)c1ccc(SC)s1 (stereo not given)
2050 | Cc1cc(Cl)cc(CN(Cc2ccc(Cl)cc2)Cc2ccc([N+](=O)[O-])s2)c1
1300 | CCOC(=O)C1Cc2ccccc2CN1C(=O)c1ccc(C)o1 (stereo not given)

target: T1, Nuclear receptor subfamily 1 group D member 1; assay: Inverse agonist activity at Rev-Erb alpha LBD (unknown origin) by FRET assay

EC50 [nM] | SMILES
150 | COCCNc1oc(-c2ccc(N(C)Cc3ccc(Cl)cc3)cc2)nc1C#N

target: Nuclear receptor subfamily 1 group D member 2 (Homo sapiens) (UniProt Q14995); assay: Antagonist activity at Rev-Erb beta (unknown origin) by RORE-luciferase reporter assay
Sequence (Q14995 whole entry, looked up): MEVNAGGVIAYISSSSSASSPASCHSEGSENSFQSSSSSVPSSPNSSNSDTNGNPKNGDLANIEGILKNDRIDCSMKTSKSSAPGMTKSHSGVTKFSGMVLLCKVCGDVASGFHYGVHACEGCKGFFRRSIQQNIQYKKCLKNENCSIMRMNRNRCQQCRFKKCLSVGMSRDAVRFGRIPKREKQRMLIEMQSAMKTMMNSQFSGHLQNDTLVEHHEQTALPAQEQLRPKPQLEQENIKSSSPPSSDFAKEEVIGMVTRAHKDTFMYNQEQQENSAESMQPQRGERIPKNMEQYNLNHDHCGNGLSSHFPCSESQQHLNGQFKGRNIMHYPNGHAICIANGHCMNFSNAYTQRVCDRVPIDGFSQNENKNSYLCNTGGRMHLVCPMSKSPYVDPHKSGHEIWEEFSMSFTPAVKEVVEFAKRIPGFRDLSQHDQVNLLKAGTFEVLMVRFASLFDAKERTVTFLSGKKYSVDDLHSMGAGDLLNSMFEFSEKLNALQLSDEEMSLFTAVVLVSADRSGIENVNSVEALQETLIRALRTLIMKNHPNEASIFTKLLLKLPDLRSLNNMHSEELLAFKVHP

EC50 [nM] | SMILES
30000 | CN1CCN(Cc2cc(CNC3(c4ccccc4F)CCCC3)ccc2O)CC1

target: T1, Nuclear receptor subfamily 1 group D member 1; assay: Agonist activity at Rev-Erb alpha (unknown origin) by BMAL1-luciferase reporter assay

SMILES | EC50 [nM]
O=C(c1cccc2ccccc12)N1Cc2ccccc2CC1CNCc1ccccc1 (stereo not given) | 3000

target: T1, Nuclear receptor subfamily 1 group D member 1; assay: Agonist activity at Rev-Erb alpha (unknown origin) by FRET assay; assay type: single protein

SMILES | EC50 [nM]
Cc1cc(Cl)cc(CN(Cc2ccc(Cl)cc2)Cc2ccc([N+](=O)[O-])s2)c1 | 50
CC(C)(C)Oc1ccc(OC[C@@H]2Cc3cc(F)ccc3CN2C(=O)c2cccc3ccccc23)cc1 | 68
CCCCCNC(=O)N1CCC(CN(Cc2ccc(Cl)cc2)Cc2ccc([N+](=O)[O-])s2)C1 (stereo not given) [SR9011] | 710

More lines, now with the values ahead:

EC50 [nM] | SMILES
< 5000 | FC(F)(F)c1ccc(-c2cncnc2)c(Oc2ccc3nnc(Cl)n3n2)c1
1130 | Cc1cc(F)ccc1-c1ccc(C(F)(F)F)cc1Oc1nn(C)c(=O)c2ccsc12
5510 | FC(F)(F)c1ccc(-c2ccc3ncc(Cl)n3c2)c(Oc2nn3ccnc3c3ccsc23)c1
< 1000 | FC(F)(F)c1ccc(-c2cccnc2)c(Oc2ccc3nnc(Cl)n3n2)c1
520 | Cn1nc(Oc2cc(C(F)(F)F)ccc2-c2ccsc2Cl)c2sccc2c1=O
